Measured values from patent US12459951B2, “Compounds that interact with RAS superfamily proteins for treatment of cancers, inflammatory diseases, rasopathies, and fibrotic disease” (SHY Therapeutics, LLC, priority 2022, dated 2025).

Experiments:
[1] = tested on: Akt phosphorylation; test: Akt Phosphorylation Assay (western blot), Panc-1; type: cell-based, human; conditions: at 10 μM, * = activation
In short: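 Phospho-Akt (Ser473) was measured by western blot in lysates of KRas G12D Panc-1 cells exposed to test compound for 6 h at 37 °C, either at 10 μM final with 0.3% DMSO or as serial dilutions for IC50. One format used overnight 0.5% FBS starvation followed by a 15 min pulse of 1.5 ng/ml EGF. The other used cells in 10% FBS with no stimulation.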

[2] = tested on: KRas G12D mutant; test: Ras GTP Binding Domain Inhibition Assay (Ras Superfamily Assay); conditions: 20 μM compound; for KRas G12D mutant + SOS: % inh.: with SOS; for KRas G12D mutant: % inh.: without SOS
In short: (§1)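 Binding of 100 nM fluorescent GTP (Cy3 or Cy5, 45 min, room temperature) was read after washes from plate-captured His-tagged protein. Beforehand, compounds at 20 μM or in dilution series for IC50 sat 3 h on the protein in Tris buffer pH 7.4 or 7.0 with 1% DMSO, Sos GEF optionally added for the last hour.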

[3] = tested on: KRas wild type; test: as above; conditions: 20 μM compound; for KRas wild type + SOS: % inh.: with SOS; for KRas wild type: % inh.: without SOS
In short: as §1

[4] = target: T1, Rac-1 (Homo sapiens, UniProt P63000); test: as above; conditions: read-out: Rac-1: % inh.
T1 construct: made in house
In short: as §1

Row | SMILES | KRas G12D mutant + SOS: % inh. [2] | KRas G12D mutant: % inh. [2] | KRas wild type + SOS: % inh. [3] | KRas wild type: % inh. [3] | inhibition at 20 µM [4] [%] | % inh of Akt phosphorylation in Panc-1 [1]
1 | Cc1c(-c2ccn(C3CC3)n2)cn2nc(-c3nccn3C)nc(Nc3cc(O)ccn3)c12 [Compound 150, 2-((6-(1-Cyclopropyl-1H-pyrazol-3-yl)-5-methyl-2-(1-methyl-1H-imidazol-2-yl)pyrrolo[2,1-f][1,2,4]triazin-4-yl)amino)pyridin-4-ol] | D (D = 76-100% inhibition) | D (D = 76-100% inhibition) | D (D = 76-100% inhibition) | D (D = 76-100% inhibition) | 50 to 75 | B* (26-49% activation)
2 | Cc1c(-c2cccnc2)cn2nc(-c3nccn3C)nc(Nc3ccncn3)c12 [Compound 156, 5-Methyl-2-(1-methyl-1H-imidazol-2-yl)-6-(pyridin-3-yl)-N-(pyrimidin-4-yl)pyrrolo[2,1-f][1,2,4]triazin-4-amine] | D (D = 76-100% inhibition) | D (D = 76-100% inhibition) | D (D = 76-100% inhibition) | D (D = 76-100% inhibition) | 76 to 100 | D* (85-100% activation)
3 | COc1ccnc(Nc2nc(-c3nccn3C)nn3cc(-c4cccnc4)c(C)c23)c1 [Compound 157, N-(4-Methoxy-pyridin-2-yl)-5-methyl-2-(1-methyl-1H-imidazol-2-yl)-6-(pyridin-3-yl)pyrrolo[2,1-f][1,2,4]triazin-4-amine] | D (D = 76-100% inhibition) | D (D = 76-100% inhibition) | D (D = 76-100% inhibition) | D (D = 76-100% inhibition) | 76 to 100 | D* (85-100% activation)
4 | COc1ccnc(Nc2nc(-c3nccn3C)nn3cc(-c4cccnc4)c(C)c23)n1 [Compound 158, N-(4-Methoxy-pyrimidin-2-yl)-5-methyl-2-(1-methyl-1H-imidazol-2-yl)-6-(pyridin-3-yl)pyrrolo[2,1-f][1,2,4]triazin-4-amine] | D (D = 76-100% inhibition) | D (D = 76-100% inhibition) | D (D = 76-100% inhibition) | D (D = 76-100% inhibition) | 76 to 100 | D* (85-100% activation)
5 | COCCO[C@H]1C[C@H](Nc2nc(-c3nccn3C)nn3cc(-c4ccnc(OC)c4)c(C)c23)C1 [Compound 161, N-((1r,3r)-3-(2-Methoxy-ethoxy)cyclo-butyl)-6-(2-methoxy-pyridin-4-yl)-5-methyl-2-(1-methyl-1H-imidazol-2-yl)pyrrolo[2,1-f][1,2,4]triazin-4-amine] | 0 (0 = 0% inhibition) | A (A = 1-25% inhibition) | 0 (0 = 0% inhibition) | A (A = 1-25% inhibition) | 1 to 25 | A* (1-25% activation)
6 | COc1ccnc(Nc2nc(-c3nccn3C)nn3cc(-c4cnn(C(C)C)c4)c(C)c23)c1 [Compound 165, 6-(1-Isopropyl-1H-pyrazol-4-yl)-N-(4-methoxypyridin-2-yl)-5-methyl-2-(1-methyl-1H-imidazol-2-yl)pyrrolo[2,1-f][1,2,4]triazin-4-amine] | D (D = 76-100% inhibition) | D (D = 76-100% inhibition) | D (D = 76-100% inhibition) | D (D = 76-100% inhibition) | 50 to 75 | D* (85-100% activation)
7 | COc1ccnc(Nc2nc(-c3nccn3C)nn3cc(-c4cccnc4)c(-c4ccccn4)c23)c1 [Compound 166, N-(4-Methoxypyridin-2-yl)-2-(1-methyl-1H-imidazol-2-yl)-5-(pyridin-2-yl)-6-(pyridin-3-yl)pyrrolo[2,1-f][1,2,4]triazin-4-amine] | D (D = 76-100% inhibition) | D (D = 76-100% inhibition) | D (D = 76-100% inhibition) | C (C = 50-75% inhibition) | 76 to 100 | D* (85-100% activation)
8 | COc1cc(Nc2nc(-c3nccn3C)nn3cc(-c4cccnc4)c(-c4ccccn4)c23)ncn1 [Compound 167, N-(6-Methoxypyrimidin-4-yl)-2-(1-methyl-1H-imidazol-2-yl)-5-(pyridin-2-yl)-6-(pyridin-3-yl)pyrrolo[2,1-f][1,2,4]triazin-4-amine] | A (A = 1-25% inhibition) | B (B = 26-49% inhibition) | A (A = 1-25% inhibition) | A (A = 1-25% inhibition) | 1 to 25 | B* (26-49% activation)

Further lines, with some results ahead:

Row | KRas G12D mutant + SOS: % inh. [2] | KRas G12D mutant: % inh. [2] | KRas wild type + SOS: % inh. [3] | KRas wild type: % inh. [3] | inhibition at 20 µM [4] [%] | SMILES | % inh of Akt phosphorylation in Panc-1 [1]
9 | D (D = 76-100% inhibition) | B (B = 26-49% inhibition) | C (C = 50-75% inhibition) | C (C = 50-75% inhibition) | 50 to 75 | CO[C@H]1C[C@H](Nc2nc(-c3nccn3C)nn3cc(-c4cccnc4)c(C)c23)C1 [Compound 151, N-((1r,3r)-3-Methoxycyclobutyl)-5-methyl-2-(1-methyl-1H-imidazol-2-yl)-6-(pyridin-3-yl)pyrrolo[2,1-f][1,2,4]triazin-4-amine] | C* (46-84% activation)
10 | C (C = 50-75% inhibition) | C (C = 50-75% inhibition) | B (B = 26-49% inhibition) | C (C = 50-75% inhibition) | 50 to 75 | COCCO[C@H]1C[C@H](Nc2nc(-c3nccn3C)nn3cc(-c4cccnc4)c(C)c23)C1 [Compound 152, N-((1r,3r)-3-(2-methoxyethoxy)cyclo-butyl)-5-methyl-2-(1-methyl-1H-imidazol-2-yl)-6-(pyridin-3-yl)pyrrolo[2,1-f][1,2,4]triazin-4-amine] | B* (26-49% activation)
11 | C (C = 50-75% inhibition) | C (C = 50-75% inhibition) | B (B = 26-49% inhibition) | B (B = 26-49% inhibition) | 50 to 75 | CO[C@H]1C[C@@H](Nc2nc(-c3nccn3C)nn3cc(-c4cccnc4)c(C)c23)C1 [Compound 153, N-((1s,3s)-3-methoxy-cyclobutyl)-5-methyl-2-(1-methyl-1H-imidazol-2-yl)-6-(pyridin-3-yl)pyrrolo[2,1-f][1,2,4]triazin-4-amine] | B (26-49% inhibition)
12 | 0 (0 = 0% inhibition) | 0 (0 = 0% inhibition) | 0 (0 = 0% inhibition) | A (A = 1-25% inhibition) | 0 | CO[C@H]1C[C@H](Nc2nc(-c3nccn3C)nn3cc(-c4ccncc4)c(C)c23)C1 [Compound 159, N-((1r,3r)-3-Methoxycyclobutyl)-5-methyl-2-(1-methyl-1H-imidazol-2-yl)-6-(pyridin-4-yl)pyrrolo[2,1-f][1,2,4]triazin-4-amine] | B (26-49% inhibition)
13 | A (A = 1-25% inhibition) | 0 (0 = 0% inhibition) | 0 (0 = 0% inhibition) | 0 (0 = 0% inhibition) | 1 to 25 | COc1cc(-c2cn3nc(-c4nccn4C)nc(N[C@H]4C[C@H](OC)C4)c3c2C)ccn1 [Compound 160, N-((1r,3r)-3-Methoxycyclobutyl)-6-(2-methoxypyridin-4-yl)-5-methyl-2-(1-methyl-1H-imidazol-2-yl)pyrrolo[2,1-f][1,2,4]triazin-4-amine] | B* (26-49% activation)
14 | 0 (0 = 0% inhibition) | 0 (0 = 0% inhibition) | 0 (0 = 0% inhibition) | A (A = 1-25% inhibition) | 0 | COc1cc(-c2cn3nc(-c4nccn4C)nc(N[C@H]4C[C@@H](OC)C4)c3c2C)ccn1 [Compound 162, N-((1s,3s)-3-Methoxycyclobutyl)-6-(2-methoxypyridin-4-yl)-5-methyl-2-(1-methyl-1H-imidazol-2-yl)pyrrolo[2,1-f][1,2,4]triazin-4-amine] | B (26-49% inhibition)
15 | A (A = 1-25% inhibition) | B (B = 26-49% inhibition) | A (A = 1-25% inhibition) | A (A = 1-25% inhibition) | 1 to 25 | CO[C@H]1C[C@H](Nc2nc(-c3nccn3C)nn3cc(-c4cccnc4)c(-c4ccccn4)c23)C1 [Compound 168, N-((1r,3r)-3-Methoxycyclobutyl)-2-(1-methyl-1H-imidazol-2-yl)-5-(pyridin-2-yl)-6-(pyridin-3-yl)pyrrolo[2,1-f][1,2,4]triazin-4-amine] | 0 (0% inhibition)
